The subject of experiment [1] is panel of seven fluorescent strains. Particulars: cultures unable to grow on a given carbon source, BSA added.
Description: The growth of a panel of seven fluorescent strains was additionally measured on a panel of five carbon sources, with and without BSA. […] 0.05% w/v BSA was therefore included when making MM droplets.
For experiment [2], the system named is Herbaspirillum frisingense (Hf-GFP). Nature of the experiment: Hf-GFP facilitation screen on kChip (Hf-GFP yield in co-culture with soil isolate compositions, single carbon sources). Type of experiment: cell-based. Conditions: single carbon source 0.5% w/v, by 72 hours. As to the method: Microbial cultures were prepared as described in the “Microbial culture input preparation” section above. The culture medium for H. frisingense revival from a glycerol stock also included the selection antibiotic kanamycin (30 μg/mL). Six carbon sources (galactose, glucose, fructose, raffinose, lactose, sucrose) were prepared as described in the “Carbon source input preparation” section above to a concentration of 2% w/v, which were added 1:1 with MM+0.05% w/v BSA to produce 1×MM+1% w/v carbon source (six unique MM each with one carbon source). A plate of 16 color codes were also prepared in advance at 50 μM total concentration (“kChip input preprocessing” section above).
At the onset of the screen, all cultures were washed three times and resuspended in MM+0.05% w/v BSA (no carbon source) and normalized to an initial OD600=0.08. A “droplet plate” (96-well plate) was prepared whereby each of 16 wells, corresponding to the 16 input conditions of the screen, received the following four elements: (1) 50 μL MM+1% w/v carbon source; (2) 25 μL unique soil isolate at OD600=0.08 (or a no-isolate control or a negative control); (3) 25 μL Hf-GFP at OD600=0.08; and (4) 2 μL 50 μM color code. The two controls, a negative control and a no-isolate control, were in principle the same (just different color codes), with the negative control used to measure Hf-GFP monocultures and the no-isolate used to calculate isolate-mediated differences. The carbon source and color code were mixed in advance, though the cultures were added just before making droplets to load on a kChip.
After emulsification, each 1-nL droplet contained the following: (1) 0.5% w/v carbon source; (2) soil isolate at OD600=0.02 (˜20 cells) (or no-isolate control or negative control); (3) Hf-GFP at OD600=0.02 (˜20 cells); and (4) a set of color code (total concentration of all three fluorescent dyes at 1 μM). Droplets were prepared for each carbon source at a time and loaded onto a k={1:7;19} Chip, i.e. first all sucrose-containing droplets were prepared and loaded onto the first kChip in the screen, then all lactose-containing droplets were prepared and loaded onto the second kChip, and so forth. Because there were only 16 inputs in total, there were no instances where all inputs were unique in k=19 microwells. The instant analysis was focused upon the k=1-7 microwells, and specifically on instances where all droplets within a given microwell were unique. Throughput tradeoffs associated with this number of inputs and k values are discussed below.
After loading droplets, the kChip was imaged to read the color-code of each droplet (“pre-merge” scan) and droplet sets were merged within their corresponding microwells (“Droplet making and kChip loading” section above). The post-merge communities contained the following: (1) 0.5% w/v carbon source; (2) k=1, 2, 3, 4, 5, 6, 7, or 19 soil isolates collectively at OD600=0.02 (or no-isolate control or negative control); (3) Hf-GFP at OD600=0.02; and (4) 1 μM mixed color codes (no longer serving a purpose). […]

Entries after “also recorded” stand apart in the source; their conditions may differ.

With bovine serum albumin [BSA], in experiment [1], the “serving as an alternative carbon source (false positive growth)” value is given as “caused no false positives”.
Consider `O=C[C@H](O)[C@@H](O)[C@@H](O)[C@H](O)CO` [galactose], for which the “Hf-GFP monoculture growth/yield on the carbon source” value in experiment [2] was “high yield”.
Same read-out and setting: for `OC[C@H]1O[C@H](OC[C@H]2O[C@H](O[C@]3(CO)O[C@H](CO)[C@@H](O)[C@@H]3O)[C@H](O)[C@@H](O)[C@@H]2O)[C@H](O)[C@@H](O)[C@H]1O` [raffinose] the value was “low”; for `OC[C@H]1O[C@@H](O[C@H]2[C@H](O)[C@@H](O)C(O)O[C@@H]2CO)[C@H](O)[C@@H](O)[C@H]1O` (stereo partly drawn) [lactose], “low”; for `OC[C@H]1O[C@@](CO)(O[C@H]2O[C@H](CO)[C@@H](O)[C@H](O)[C@H]2O)[C@@H](O)[C@@H]1O` [sucrose], “indistinguishable from background; also recorded: undetectably low”.
The same measure, in the same setting: the entry for `O=C(CO)[C@@H](O)[C@H](O)[C@H](O)CO` [fructose] is “low”.

The values above are taken from patent US12577526B2, “Massively parallel on-chip construction of synthetic microbial communities” (MASSACHUSETTS INSTITUTE OF TECHNOLOGY, priority 2019, dated 2026).
